Literature values in article PMC6315591 (Marine Drugs, 2018).

Tested on: muscle nAChR on BC3H-1 cells

## α-conotoxin MI
  greater affinity at the α/δ versus α/γ interface: 10,000 fold
